Measurements taken from patent publication US10519211B2, “Compounds as peptidic GLP1/glucagon/GIP receptor agonists” (SANOFI, priority 2016, dated 2019).
Numbered stars: 1 amine (or outer) side, 2 acyl side, 3 side chain; on linkers, the order of the positions; unused ones are H or OH. Square brackets hold non-standard residues; d marks the D form. Side chains are listed from the residue outwards. Peptide text beside a SMILES is read from it. * marks the point of attachment. Adipoyl(4R-palmitoylamino) = CCCCCCCCCCCCCCCC(=O)N[C@H](CCC(=O)*)CC(=O)O; γGlu = O=C(O)[C@H](CCC(=O)[*:2])N[*:1]; AEEA = NCCOCCOCC(=O)O; Aib = CC(C)(N)C(=O)O

Assays:
Assay type in all cases: physicochemical
[1] = Thioflavin T (ThT) assay for physical stability (fibrillation); conditions: 3 mg/ml, 100 mM acetate pH 4.5 with m-cresol, shaking at 37° C.
Method: Investigations were carried out to determine fibrillation tendencies under stress conditions by shaking at 37° C. within Fluoroskan Ascent FL.
For the tests in Fluoroskan Ascent FL, 200 μL sample were placed into a 96 well mictrotiter plate PS, flat bottom, Greiner Fluotrac No. 655076. Plates were sealed with Scotch Tape (Quiagen). Samples were stressed by continuous cycles of 10 s shaking at 960 rpm and 50 s rest period at 37° C. The kinetic was monitored by measuring fluorescence intensity every 20 minutes.
Peptides were diluted in a buffer system to a final concentration of 3 mg/ml. 20 μL of a 10.1 mM ThT solution in H2O were added to 2 mL of peptide solution to receive a final concentration of 100 μM ThT. For each sample eight replicates were tested.
Tht buffer system A) 100 mM Acetate pH 4.5 including m-cresol (100 mM Natriumacetat trihydrat, pH adjustment using 2N CH3COOH, 2.7 mg/mL m-cresol) Tht buffer system B) 100 mM citrate buffer pH 6.0
Lag time in hours in Thioflavin T (ThT) assay of peptide samples was determined in Tht buffer system A as described in Methods.

[2] = Chemical stability assessment (UPLC-UV, relative purity loss); conditions: 1 mg/ml, 25 mM acetate buffer pH 4.5 with m-cresol (buffer system A)
Method: Prior to the chemical stability measurement of a peptide batch, its purity was determined through UPLC/MS. For stability testing the target concentration was 1 mg pure compound/ml. Therefore solutions from solid samples were prepared in a buffer system with a concentration of 1 mg/mL compound based on the previously determined % purity:
Chemical stability buffer system A) 25 mM acetate buffer pH4.5, 3 mg/mL L-Methionine, 2.7 mg/mL m-cresol, 18 mg/mL Glycerol 85%
Peptide solutions were filtered through […] pore size and filled into aliquots under aseptic conditions. At starting point UPLC-UV was performed by injection of 2 μl of the undiluted sample.
For chemical stability testing, aliquots were stored for 28 days at Sand 40° C. After this time course the samples were centrifuged for 15 min at 2500 RCF. Then 2 μl of the undiluted supernatant were analysed with UPLC-UV.
The chemical stability was rated through the relative loss of purity calculated by the equation: [(purity at starting point)−(purity after 28 days at X° C.)]/(purity at starting point)]*100%
The purity is calculated as [(peak area peptide)/(total peak area)]*100%
Peptide samples were prepared in Chemical stability buffer system A and chemical stability was assessed as described in Methods.

[3] = Solubility assessment (UPLC-UV); conditions: acetate buffer pH 4.5, 2.7 mg/ml m-cresol (buffer system A), target 10 mg/ml
Method: Prior to the solubility measurement of a peptide batch, its purity was determined through UPLC/MS.
Therefore solutions from solid samples were prepared in a buffer systems with a concentration of 10 mg/mL compound based on the previously determined % purity:
Solubility buffer system A) Acetate Buffer pH 4.5, 100 mM sodium acetate trihydrate, 2.7 mg/ml m-Cresol
UPLC-UV was performed after 1 hour of gentle agitation from the supernatant, which was obtained after 15 min of centrifugation at 2500 RCF (relative centrifugal acceleration).
The solubility was determined by the comparison of the UV peak area of 2 μL-injection of a buffered sample diluted 1:10 with a standard curve of a reference peptide with known concentration. The different UV extinction coefficients of sample and reference peptide were calculated based on the different amino acid sequences and considered in the concentration calculation.
Peptide samples were prepared in solubility buffer system A and solubility was assessed as described in Methods.

[4] = Dynamic light scattering (DLS), hydrodynamic radius as surrogate for interaction parameter kD
Method: For every peptide solution, the hydrodynamic radius Rh and the diffusion constant D (related via the Stokes-Einstein equation) were determined as an average over triplicates. Both parameters were determined at different concentrations (e.g., Rh1 and D1: 1 mg/ml and Rh5 and D5: 5 mg/ml) in the same buffer system. The difference of these parameters between low and high peptide concentration is a surrogate for the DLS interaction parameter kD. Rh5<Rh1 or D5>D1 correspond to kD>0 and therefore to repulsive inter-particle interactions that result in improved physical (or colloidal) stability.
DLS buffer system A) 25 mM acetate buffer pH4.5, 3 mg/mL L-Methionine, 2.7 mg/mL m-cresol, 18 mg/mL Glycerol 85%
DLS Method C: DLS measurements were performed on a DynaPro Plate Reader II (Wyatt Technology, Santa Barbara, Calif., US) and using one of the following black, low volume, and non-treated plates: polystyrene 384 assay plate with clear bottom (Corning, N.Y., US), polystyrene 96 assay plate with clear bottom (Corning, N.Y., US), cyclo olefin polymer (COP) 384 assay plate with clear bottom (Aurora, Mont., US), or polystyrene 384 assay plate with clear bottom (Greiner Bio-One, Germany). The data were processed with the Dynamics software provided by Wyatt Technology. Parameters of the particle size distribution were determined with non-negatively constrained least squares (NNLS) methods using DynaLS algorithms. Measurements were taken at 25° C. with an 830 nm laser light source at an angle of 158°.
The hydrodynamic radius radius Rh of peptide samples was determined at different peptide concentrations (1 mg/ml and 5 mg/ml) in DLS buffer system A using DLS method C as described in Methods as surrogate for the DLS interaction parameter kD.

- Lag time before increase [1]: >45 h
- Chemical stability [relative purity loss 28 days 40° C.] (%) at pH 4.5 [2]: 9.6%
- solubility at 1 h [3]: > 10.4 mg/mL
- Delta Rh [nm] = Rh5 − Rh1 ([4]; DLS buffer system A pH 4.5): −0.1 nm
- Rh1 [nm] c= 1 mg/ml ([4]; hydrodynamic radius, 1 mg/ml, DLS buffer system A pH 4.5, DLS method C, 25° C.): 2.8 nm
- Rh5 [nm] c = 5 mg/ml ([4]; hydrodynamic radius, 5 mg/ml, DLS buffer system A pH 4.5, DLS method C, 25° C.): 2.7 nm
Compound: CCCCCCCCCCCCCCCC(=O)N[C@H](CCC(=O)NCCOCCOCC(=O)N[C@@H](CCC(=O)NCCCC[C@H](NC(=O)[C@H](CC(C)C)NC(=O)[C@H](CCCCN)NC(=O)[C@H](CO)NC(=O)[C@H](CC(C)C)NC(=O)[C@H](CC(=O)O)NC(=O)[C@H](CO)NC(=O)[C@@H](NC(=O)[C@H](Cc1ccccc1)NC(=O)[C@@H](NC(=O)CNC(=O)[C@H](CCC(N)=O)NC(=O)C(C)(C)NC(=O)[C@@H](N)Cc1c[nH]cn1)[C@@H](C)O)[C@@H](C)O)C(=O)N[C@@H](CCC(=O)O)C(=O)N[C@@H](CCC(=O)O)C(=O)N[C@@H](CCC(N)=O)C(=O)N[C@@H](CCCNC(=N)N)C(=O)N[C@@H](CCC(N)=O)C(=O)NC(C)(C)C(=O)N[C@@H](CCC(=O)O)C(=O)N[C@@H](Cc1ccccc1)C(=O)N[C@H](C(=O)N[C@@H](CCC(=O)O)C(=O)N[C@@H](Cc1c[nH]c2ccccc12)C(=O)N[C@@H](CC(C)C)C(=O)N[C@@H](CCCCN)C(=O)N[C@@H](C)C(=O)N[C@H](C)C(=O)NCC(=O)N[C@@H](Cc1c[nH]cn1)C(=O)N1CCC[C@H]1C(=O)N[C@@H](CO)C(=O)NC(C)(C)C(=O)N[C@@H](CCCCN)C(=O)N1CCC[C@H]1C(=O)N1CCC[C@H]1C(=O)N1CCC[C@H]1C(=O)N[C@@H](CCCCN)C(N)=O)[C@@H](C)CC)C(=O)O)CC(=O)O [SEQ ID NO: 23, H-Aib-Q-G-T-F-T-S-D-L-S-K-L-K[gGlu-AEEA-gAAA-Palm]-E-E-Q-R-Q-Aib-E-F-I-E-W-L-K-A-dAla-G-H-P-S-Aib-K-P-P-P-K-NH2] (H-H[Aib]QGTFTSDLSKLK([γGlu-AEEA-Adipoyl(4R-palmitoylamino)])EEQRQ[Aib]EFIEWLKA[dA]GHPS[Aib]KPPPK-NH2)
